# Data: patent publication US11078165B2 (priority 2017, dated 2021)
# Like-named read-outs stand apart in the source and are kept apart here.
# Experiments:
# [1] = biological target: F-ATP synthase of inverted membrane vesicles (IMV) of M. smegmatis; test: ATP synthesis assay with inverted membrane vesicles; details: read-out: IC50 [μM], effect on ATP synthesis, IMVs of M. smegmatis
# [2] = test system: M. smegmatis mc^2 155; test: Minimum inhibitory concentration, broth micro dilution; assay type: cell-based, Mycobacterium smegmatis; details: Mycolicibacterium smegmatis, MC^2155; M. smegmatis growth, 24 h; read-out: MIC50 [μM], bacterial growth
# [3] = Mouse liver microsome stability; assay type: in vitro ADME; details: for half-life: mouse, liver microsomes
# [4] = test system: M. bovis BCG; test: microbe, parasite or virus in culture; assay type: cell-based, Mycobacterium bovis; details: for ATP synthesis (luminescence): FIG. 3C; for IC50: Mycobacterium tuberculosis variant bovis BCG, BCG, FIG. 3D
# [5] = test system: extracellular oxygen consumption; test: Oxygen consumption rate; assay type: cell-based
# [6] = test system: IMVs of M. phlei; details: reported [1], read-out: IC50, ATP synthesis; cited from earlier work
# F-ATP synthase of inverted membrane vesicles (IMV) of M. smegmatis, sequence (A0R203 whole entry): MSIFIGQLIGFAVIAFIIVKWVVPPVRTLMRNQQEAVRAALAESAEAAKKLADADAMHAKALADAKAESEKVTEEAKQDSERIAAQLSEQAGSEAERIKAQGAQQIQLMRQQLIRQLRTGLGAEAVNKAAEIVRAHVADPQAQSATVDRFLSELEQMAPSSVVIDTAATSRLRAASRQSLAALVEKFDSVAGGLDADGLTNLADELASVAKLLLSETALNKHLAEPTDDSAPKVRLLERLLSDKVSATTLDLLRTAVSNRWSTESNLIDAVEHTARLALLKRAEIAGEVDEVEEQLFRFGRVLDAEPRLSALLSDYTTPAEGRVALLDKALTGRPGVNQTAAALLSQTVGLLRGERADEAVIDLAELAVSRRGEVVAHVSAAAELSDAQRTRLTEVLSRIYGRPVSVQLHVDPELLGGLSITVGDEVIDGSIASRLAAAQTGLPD
# F-ATP synthase of inverted membrane vesicles (IMV) of M. smegmatis, sequence (A0R1Z9 whole entry, further chain): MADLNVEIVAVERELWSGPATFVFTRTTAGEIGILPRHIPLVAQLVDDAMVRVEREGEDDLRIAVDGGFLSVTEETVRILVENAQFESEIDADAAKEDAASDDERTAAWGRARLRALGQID
# F-ATP synthase of inverted membrane vesicles (IMV) of M. smegmatis, sequence (A0R200 whole entry, further chain): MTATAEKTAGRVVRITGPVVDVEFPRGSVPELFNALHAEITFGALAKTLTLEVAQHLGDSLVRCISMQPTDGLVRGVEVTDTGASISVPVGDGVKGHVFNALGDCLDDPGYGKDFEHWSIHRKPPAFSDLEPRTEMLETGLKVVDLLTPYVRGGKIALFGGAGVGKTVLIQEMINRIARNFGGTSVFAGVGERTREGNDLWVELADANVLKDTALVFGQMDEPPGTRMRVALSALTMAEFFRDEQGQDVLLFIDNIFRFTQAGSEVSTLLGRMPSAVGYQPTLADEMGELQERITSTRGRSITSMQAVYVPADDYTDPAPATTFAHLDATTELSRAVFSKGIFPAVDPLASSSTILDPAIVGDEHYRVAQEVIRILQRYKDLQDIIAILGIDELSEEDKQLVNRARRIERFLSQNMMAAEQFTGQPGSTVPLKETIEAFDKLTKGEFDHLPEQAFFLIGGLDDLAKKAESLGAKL
# F-ATP synthase of inverted membrane vesicles (IMV) of M. smegmatis, sequence (A0R201 whole entry, further chain): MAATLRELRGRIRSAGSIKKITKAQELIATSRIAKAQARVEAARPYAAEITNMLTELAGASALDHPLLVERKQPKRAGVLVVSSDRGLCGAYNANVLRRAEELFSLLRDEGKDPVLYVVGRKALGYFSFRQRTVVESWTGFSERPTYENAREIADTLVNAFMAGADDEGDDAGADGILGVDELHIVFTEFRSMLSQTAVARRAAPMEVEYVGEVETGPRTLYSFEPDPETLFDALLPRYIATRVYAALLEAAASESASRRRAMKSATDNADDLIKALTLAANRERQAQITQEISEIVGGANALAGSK
# F-ATP synthase of inverted membrane vesicles (IMV) of M. smegmatis, sequence (A0R202 whole entry, further chain): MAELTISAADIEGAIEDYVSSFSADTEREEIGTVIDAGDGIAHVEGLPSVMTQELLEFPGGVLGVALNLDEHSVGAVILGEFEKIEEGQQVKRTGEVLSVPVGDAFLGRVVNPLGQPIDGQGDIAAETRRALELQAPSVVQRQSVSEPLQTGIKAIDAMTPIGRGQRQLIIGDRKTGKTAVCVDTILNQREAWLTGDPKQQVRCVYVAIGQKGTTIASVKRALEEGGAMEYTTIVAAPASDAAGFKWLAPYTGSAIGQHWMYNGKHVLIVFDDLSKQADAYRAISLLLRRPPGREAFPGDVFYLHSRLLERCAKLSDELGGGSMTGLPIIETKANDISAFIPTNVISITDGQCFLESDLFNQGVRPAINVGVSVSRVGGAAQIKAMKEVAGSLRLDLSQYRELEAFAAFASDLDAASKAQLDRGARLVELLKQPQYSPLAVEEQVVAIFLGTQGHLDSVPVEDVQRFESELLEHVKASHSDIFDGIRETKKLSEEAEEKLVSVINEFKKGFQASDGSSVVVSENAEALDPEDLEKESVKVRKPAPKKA
SMILES,IC50 [1] [µM],melting point [°C],MIC50 [2] [µM],also measured
"CCNc1ccnc(Nc2ccc(NC(=O)c3cccc(Br)c3)cc2)n1 [Br desMe, 3-bromo-N-(4-((4-(ethylamino)pyrimidin-2-yl)amino)phenyl)benzamide]",1.03 ± 0.25,229 to 231,16.8 ± 2.6,–
"CCNc1cc(C)nc(Nc2ccc(NC(=O)c3ccccc3)cc2)n1 [H U Et, N-(4-((4-(ethylamino)-6-methylpyrimidin-2-yl)amino)phenyl)benzamide]",1.65 ± 0.16,225 to 226,26.9 ± 1.39,–
"Cc1cc(NC(C)C)nc(Nc2ccc(NC(=O)c3cccc(Br)c3)cc2)n1 [Br iso, 3-bromo-N-(4-((4-(isopropylamino)-6-methylpyrimidin-2-yl)amino)phenyl)benzamide]",2.69 ± 0.21,183 to 185,50.1 ± 4.5,–
"CCNc1cc(C)nc(Nc2ccc(NC(=O)c3cccc(Br)c3)cc2)n1 [Cpd 6, 3-bromo-N-(4-((4-(ethylamino)-6-methylpyrimidin-2-yl)amino)phenyl)benzamide]",–,–,–,"microsomal CLint ([3]; mouse liver microsomes): 14.6 µL/min/mg; half-life ([3]; read-out: T½): 47.5 min; half-life ([3]; without NADPH, read-out: T½ w/o NADPH): 68 min"
"CCNc1cc(C)nc(Nc2ccc(NC(=O)c3cccc(F)c3)cc2)n1 [F U Et, N-(4-((4-(ethylamino)-6-methylpyrimidin-2-yl)amino)phenyl)-3-fluorobenzamide]",0.26 ± 0.05,259 to 263,18.7 ± 1.25,–
"CCNc1nc(Nc2ccc(NC(=O)c3ccccc3)cc2)ncc1C [H T Et, N-(4-((4-(ethylamino)-5-methylpyrimidin-2-yl)amino)phenyl)benzamide]",0.9 ± 0.06,> 230,39 ± 1.91,–
"CNc1cc(C)nc(Nc2ccc(NC(=O)c3cccc(Br)c3)cc2)n1 [Br Me, 3-bromo-N-(4-((4-methyl-6-(methylamino)pyrimidin-2-yl)amino)phenyl)benzamide]",0.39 ± 0.06,301 to 303,12.4 ± 0.56,–
"CCc1nc2ccc(Cl)cn2c1C(=O)NCc1ccc(N2CCC(c3ccc(OC(F)(F)F)cc3)CC2)cc1 [Q203, 6-chloro-2-ethyl-N-[[4-[4-[4-(trifluoromethoxy)phenyl]piperidin-1-yl]phenyl]methyl]imidazo[1,2-a]pyridine-3-carboxamide]",–,–,–,"effect of Q203 in the presence of cpd 6 ([4]; ATP synthesis, FIG. 3E): additive effect; concentration for complete inhibition of oxygen consumption ([5]; Q203 in combination with 40 μM of cpd 6): 100 nM"
"CCOC(=O)CNc1cc(C)nc(Nc2ccc(NC(=O)c3cccc(Br)c3)cc2)n1 [Br Gly, ethyl (2-((4-(3-bromobenzamido)phenyl)amino)-6-methylpyrimidin-4-yl)glycinate]",2.01 ± 0.16,> 230,15.5 ± 1.52,–
"CCNc1cc(C)nc(Nc2ccc(NC(=O)c3ccc(OC)cc3)cc2)n1 [4OMe U Et, N-(4-((4-(ethylamino)-6-methylpyrimidin-2-yl)amino)phenyl)-4-methoxybenzamide]",0.69 ± 0.06,285 to 288,17.3 ± 2.26,"whole cell ATP synthesis inhibition versus drug free control ([4]; analog in combination with BDQ, FIG. 6A, 6B): significant increase in the inhibition"
"CCNc1nc(C)cc(Nc2ccc(NC(=O)c3cccc(Br)c3)cc2)n1 [Br U Et iso (Cpd 6 iso), 3-bromo-N-(4-((2-(ethylamino)-6-methylpyrimidin-4-yl)amino)phenyl)benzamide]",0.38 ± 0.03,260 to 264,20.8 ± 1.9,–
"CCNc1cc(C)nc(Nc2ccc(NC(=O)c3ccc(C)cc3)cc2)n1 [4Me U Et, N-(4-((4-(ethylamino)-6-methylpyrimidin-2-yl)amino)phenyl)-4-methylbenzamide]",0.39 ± 0.02,297 to 300,31.8 ± 7.8,–
"CCNc1nc(Nc2ccc(NC(=O)c3cccc(Br)c3)cc2)ncc1C [Br T Et, 3-bromo-N-(4-((4-(ethylamino)-5-methylpyrimidin-2-yl)amino)phenyl)benzamide]",0.62 ± 0.08,> 230,12.3 ± 0.73,–
"CCNc1cc(C)nc(Nc2ccc(NC(=O)c3cccc(O)c3)cc2)n1 [3OH U Et, N-(4-((4-(ethylamino)-6-methylpyrimidin-2-yl)amino)phenyl)-3-hydroxybenzamide]",1.16 ± 0.09,283 to 285,79.6 ± 9.13,–
"CCNc1nc(Nc2ccc(NC(=O)c3cccc(F)c3)cc2)ncc1C [F T Et, N-(4-((4-(ethylamino)-5-methylpyrimidin-2-yl)amino)phenyl)-3-fluorobenzamide]",0.92 ± 0.04,–,43.5 ± 3.57,–
Cc1cc(NCCO)nc(Nc2ccc(NC(=O)c3cccc(Br)c3)cc2)n1 [Br EtOH],0.42 ± 0.03,237 to 241,19 ± 1.5,–
"COc1nc2ccc(Br)cc2cc1[C@@H](c1ccccc1)[C@@](O)(CCN(C)C)c1cccc2ccccc12 [BDQ, 1-(6-bromo-2-methoxy-quinolin-3-yl)-4-dimethylamino-2-naphthalen-1-yl-1-phenyl-butan-2-ol]",–,–,–,"IC50 [6]: 20 to 25 nM; ATP synthesis (luminescence) ([4]; 12.5 nM BDQ in the presence of 37.5 μM of cpd 6): 6.5×10^3 RLU; ATP synthesis (luminescence) ([4]; BDQ alone at 200 nM, drug-free 3.7×10^4 RLU): 8×10^3 RLU; IC50 ([4]; read-out: IC50 value of BDQ, BDQ alone): 42 nM; IC50 ([4]; read-out: IC50 value of BDQ, in combination with cpd 6): 2.36 nM; concentration inhibiting extracellular oxygen consumption ([5]; BDQ alone): about 500 nM; concentration needed for similar inhibition of oxygen consumption ([5]; BDQ in combination with 40 μM of cpd 6): 50 nm"
